Laboratory results taken from ChEMBL document CHEMBL1201862, “PubChem BioAssay data set” (2004).
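The compound was tested at five concentrations on cells cultured in 96-well plates, with a 48-hour exposure period. At the GI50, growth is halved.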 Activity calls are given as the source filed them. No stated cut-off is given here; in the data, active = GI50 up to about 1.1 µM and inactive = higher.

Legend:
Assay in all cases: NCI-60 cell line screen, 48 h
A549 = tested on: A549
COLO 205 = tested on: COLO 205
DU-145 = tested on: DU-145
HCC 2998 = tested on: HCC 2998
HOP-92 = tested on: HOP-92
HT-29 = tested on: HT-29
IGROV-1 = tested on: IGROV-1
KM12 = tested on: KM12
MDA-MB-231 = tested on: MDA-MB-231
NCI-H460 = tested on: NCI-H460
OVCAR-8 = tested on: OVCAR-8
SF-539 = tested on: SF-539
SK-MEL-2 = tested on: SK-MEL-2
SK-OV-3 = tested on: SK-OV-3
SNB-19 = tested on: SNB-19
UACC-257 = tested on: UACC-257
RPMI-8226 = tested on: RPMI-8226
SF-295 = tested on: SF-295
SNB-75 = tested on: SNB-75

Compound | GI50 (A549) | GI50 (COLO 205) | GI50 (DU-145) | GI50 (HCC 2998) | GI50 (HOP-92) | GI50 (HT-29) | GI50 (IGROV-1) | GI50 (KM12) | GI50 (MDA-MB-231) | GI50 (NCI-H460) | GI50 (OVCAR-8) | GI50 (SF-539) | GI50 (SK-MEL-2) | GI50 (SK-OV-3) | GI50 (SNB-19) | GI50 (UACC-257) | GI50 (RPMI-8226) | GI50 (SF-295) | GI50 (SNB-75)
CSc1nc(NC2CC2)c2c(n1)Sc1nc3ccccc3n1N=C2 | 18.7 µM (inactive) | 41.9 µM (inactive) | 23.5 µM (inactive) | 27.5 µM (inactive) | 21 µM (inactive) | 26.3 µM (inactive) | 42.6 µM (inactive) | 56.2 µM (inactive) | 17.8 µM (inactive) | 25.1 µM (inactive) | 10.1 µM (inactive) | 12.2 µM (inactive) | 30.3 µM (inactive) | 26.5 µM (inactive) | 34.4 µM (inactive) | 41.3 µM (inactive) |  |  | 
O=[N+]([O-])c1ccc(C2=NOC(c3ccccc3)N2C23CC4CC(CC(C4)C2)C3)cc1 (configuration not stated) | 32.9 µM (inactive) | 30 µM (inactive) | 40 µM (inactive) | 39 µM (inactive) |  | 21.3 µM (inactive) | 24.8 µM (inactive) | 27.4 µM (inactive) | 31.4 µM (inactive) | 19.3 µM (inactive) | 21.5 µM (inactive) | 54 µM (inactive) | 16.4 µM (inactive) | 43.2 µM (inactive) | > 10 µM (inactive) | 47.8 µM (inactive) | > 10 µM (inactive) | 26.8 µM (inactive) | 21.9 µM (inactive)
CCCCN/N=N/c1cn(C2OC(CO)C(O)C2O)c(=O)[nH]c1=O (configuration not stated) | > 100 µM (inactive) | > 100 µM (inactive) | > 100 µM (inactive) | > 100 µM (inactive) |  | > 100 µM (inactive) | > 100 µM (inactive) | > 100 µM (inactive) | > 100 µM (inactive) | > 100 µM (inactive) | > 100 µM (inactive) | > 100 µM (inactive) | > 100 µM (inactive) | > 100 µM (inactive) | > 100 µM (inactive) | > 100 µM (inactive) |  | > 100 µM (inactive) | 
CC(=O)N/N=C1\NC(=O)C[C@H]2[C@@H]3CC=C4C[C@@H](OC(C)=O)CC[C@]4(C)[C@H]3CC[C@]12C | 34.2 µM (inactive) | 45.3 µM (inactive) | 74 µM (inactive) |  | 15.9 µM (inactive) | 31.4 µM (inactive) | 31 µM (inactive) | 38.9 µM (inactive) | 18.7 µM (inactive) |  | 25.1 µM (inactive) | 7.33 µM (inactive) | 47.5 µM (inactive) | 21.1 µM (inactive) | 17.4 µM (inactive) | 18.7 µM (inactive) | 24.3 µM (inactive) | 14.1 µM (inactive) | 20.9 µM (inactive)
O=C(/C=C/c1ccc(F)c(F)c1)OCCc1ccccc1 | > 100 µM (inactive) | > 100 µM (inactive) | > 100 µM (inactive) | > 100 µM (inactive) |  | 34.5 µM (inactive) | > 100 µM (inactive) | > 100 µM (inactive) | > 100 µM (inactive) | > 100 µM (inactive) | > 100 µM (inactive) | > 100 µM (inactive) | > 100 µM (inactive) | > 100 µM (inactive) | > 100 µM (inactive) | > 100 µM (inactive) | 77.6 µM (inactive) | > 100 µM (inactive) | 84.5 µM (inactive)
N#Cc1cc(-c2nc3ccc(F)cc3s2)ccc1N | > 100 µM (inactive) | 28.9 µM (inactive) | > 100 µM (inactive) |  | > 100 µM (inactive) | > 100 µM (inactive) | 3.27 µM (inactive) | > 100 µM (inactive) | > 100 µM (inactive) | > 100 µM (inactive) | > 100 µM (inactive) | 51.1 µM (inactive) |  | 21.8 µM (inactive) | > 100 µM (inactive) | > 100 µM (inactive) | > 100 µM (inactive) | > 100 µM (inactive) | 14.7 µM (inactive)
CC(=O)OCC1OC(OC(C)=O)C(Nc2ncc(-c3ccc(C)cc3)s2)C(OC(C)=O)C1OC(C)=O (configuration not stated) | 18.6 µM (inactive) | 17.7 µM (inactive) | 31.3 µM (inactive) | 29.7 µM (inactive) |  | 21.2 µM (inactive) | 17.3 µM (inactive) | > 10 µM (inactive) | 19.9 µM (inactive) | 18.5 µM (inactive) | 24 µM (inactive) | 20.7 µM (inactive) | 22.6 µM (inactive) | 44.1 µM (inactive) | 21.4 µM (inactive) | 20.1 µM (inactive) | 12.9 µM (inactive) | 22.9 µM (inactive) | 15.5 µM (inactive)
CCN1C(=O)C(=C/C=C/C=C2/N(C)c3ccccc3C2(C)C)C(=O)N(CC)C1=S | > 100 µM (inactive) | > 100 µM (inactive) | 64.7 µM (inactive) |  | > 100 µM (inactive) | 55.6 µM (inactive) | > 100 µM (inactive) | > 100 µM (inactive) | > 100 µM (inactive) | 38.9 µM (inactive) | > 100 µM (inactive) | 78.3 µM (inactive) | > 100 µM (inactive) | 36.3 µM (inactive) | > 100 µM (inactive) | 56.1 µM (inactive) | > 100 µM (inactive) | 61.5 µM (inactive) | > 100 µM (inactive)
C/C(=N\c1c2ccccc2nc2ccccc12)N(C)C | 28.2 µM (inactive) | 12.6 µM (inactive) | 29 µM (inactive) |  | 10.6 µM (inactive) | 9.48 µM (inactive) | 23.9 µM (inactive) |  | 14.6 µM (inactive) |  | 13.3 µM (inactive) |  | 20 µM (inactive) | 22.8 µM (inactive) | 34 µM (inactive) | 16.9 µM (inactive) | 13.6 µM (inactive) | 14.8 µM (inactive) | 24.1 µM (inactive)
O=C(O)CN1CCN2CCCCCCCCN(CC1)CCN(CC(=O)O)CC2 | > 100 µM (inactive) | > 100 µM (inactive) | > 100 µM (inactive) |  | > 100 µM (inactive) | 43.5 µM (inactive) | > 100 µM (inactive) | 75.2 µM (inactive) | > 100 µM (inactive) | > 100 µM (inactive) | > 100 µM (inactive) | > 100 µM (inactive) | > 100 µM (inactive) | > 100 µM (inactive) | > 100 µM (inactive) | > 100 µM (inactive) | > 100 µM (inactive) | > 100 µM (inactive) | 21.9 µM (inactive)
O=C(NNC(=O)c1csc(NC(=S)NC2CCCCC2)n1)c1ccccc1 | 15.1 µM (inactive) | 5.25 µM (inactive) | 18.7 µM (inactive) | 13.9 µM (inactive) |  | 7.23 µM (inactive) | 1.96 µM (inactive) | 8.13 µM (inactive) | 13.5 µM (inactive) |  | 6.52 µM (inactive) | 15 µM (inactive) | 22.4 µM (inactive) | 12.1 µM (inactive) |  | 7.96 µM (inactive) | 10 µM (inactive) | 11 µM (inactive) | 83.9 µM (inactive)
COc1ccccc1Cn1nc(OC)c2cc([N+](=O)[O-])ccc21 | 63.2 µM (inactive) | > 100 µM (inactive) | > 100 µM (inactive) | > 100 µM (inactive) | 0.383 µM (active) | > 100 µM (inactive) | 34.8 µM (inactive) | > 100 µM (inactive) | > 41.1 µM (inactive) | 66.7 µM (inactive) | 31.1 µM (inactive) | 13.8 µM (inactive) | 19.7 µM (inactive) |  | 11.1 µM (inactive) | > 74 µM (inactive) |  | 6.3 µM (inactive) | 4.16 µM (inactive)
COc1cc2c(c(OC)c1OC)C(=O)[C@@H](O)[C@H]2NC(N)=O | > 100 µM (inactive) | > 100 µM (inactive) | > 100 µM (inactive) | > 100 µM (inactive) |  | > 100 µM (inactive) | > 100 µM (inactive) | > 100 µM (inactive) | > 100 µM (inactive) | > 100 µM (inactive) | > 100 µM (inactive) | > 100 µM (inactive) |  |  | > 100 µM (inactive) | > 100 µM (inactive) | > 100 µM (inactive) | > 100 µM (inactive) | > 100 µM (inactive)
Cc1ccc(S(=O)(=O)N2CCCSCCSCCCN(S(=O)(=O)c3ccc(C)cc3)CC2)cc1 | > 100 µM (inactive) | > 100 µM (inactive) | > 100 µM (inactive) | > 100 µM (inactive) |  | > 100 µM (inactive) | > 100 µM (inactive) | > 100 µM (inactive) | > 100 µM (inactive) | > 100 µM (inactive) | > 100 µM (inactive) | > 100 µM (inactive) | > 100 µM (inactive) | > 100 µM (inactive) | > 100 µM (inactive) | > 100 µM (inactive) | > 100 µM (inactive) | > 100 µM (inactive) | > 100 µM (inactive)
CN(C)c1cc[n+](-c2nc([N-]C(=O)C(F)(F)F)nc3c2ncn3C2CC(O)C(CO)O2)cc1 (configuration not stated) | > 100 µM (inactive) | > 100 µM (inactive) | > 100 µM (inactive) | > 100 µM (inactive) |  | > 100 µM (inactive) | > 100 µM (inactive) | > 100 µM (inactive) | > 100 µM (inactive) | > 100 µM (inactive) | > 100 µM (inactive) | > 100 µM (inactive) | > 100 µM (inactive) | > 100 µM (inactive) | > 100 µM (inactive) |  | > 100 µM (inactive) | > 100 µM (inactive) | > 100 µM (inactive)
O=c1cc(CSc2c(-c3ccccc3)c(=O)n(-c3ccccc3)c(=S)n2-c2ccccc2)[nH]c(=O)[nH]1 | > 100 µM (inactive) | > 100 µM (inactive) | > 100 µM (inactive) | > 100 µM (inactive) |  | > 100 µM (inactive) | > 100 µM (inactive) | > 100 µM (inactive) | > 100 µM (inactive) | > 100 µM (inactive) | > 100 µM (inactive) | > 100 µM (inactive) | > 100 µM (inactive) | > 100 µM (inactive) | > 100 µM (inactive) | > 100 µM (inactive) | > 100 µM (inactive) |  | > 100 µM (inactive)
